“Also recorded” adds a separate entry of the source. Marks after values point to notes of the source that are not given here.

Consider one compound from PMC12292862 (Biomedicines, 2025).

Assay [1] has as its system rat paw tissue dermal collagen. As to the kind of experiment: Sirius Red staining of dermal collagen in paw tissue. It is filed as in vivo. The note with it: carrageenan-injected paw; compounds 200 mg/kg i.p., indomethacin 10 mg/kg.
For assay [2], the system named is rat paw tissue. As to the kind of experiment: Histopathological examination of paw tissue (HE). It is filed as in vivo. The note with it: carrageenan-injected paw; compounds 200 mg/kg i.p., indomethacin 10 mg/kg. The text has this: (§1) At the end of the experiments, the rats were subjected to anesthesia with chloroform and then sacrificed. Blood was obtained via heart puncture for biochemical analysis. Following the animals’ sacrifice, the paws were taken out, decalcified, and stored in a 10% formalin solution. To prepare the tissue samples, they were sliced into thicknesses of 5 µm. Hematoxylin and eosin dyes were used to create the histology slides, which were then examined using a photomicroscope (Meiji Techno®, Iruma, Japan) for pathological alterations. The presence of inflammation was documented. Protease/phosphatase inhibitor cocktail in cold phosphate-buffered saline (1:4) (pH 7, 0.01 mol/L) (Cat. No. PPC1010, Sigma-Aldrich) was used to homogenize each rat’s paw piece in a glass homogenizer. After filtering and centrifuging the resultant homogenate for five minutes at 5000× g, oxidative stress biomarkers like GSH, SOD, and MDA were measured. The trials were repeated three times.

Assay [3] concerns carrageenan-induced rat paw edema. As to the kind of experiment: Carrageenan-induced paw edema. It is filed as in vivo. The note with it: compounds 200 mg/kg i.p., indomethacin 10 mg/kg, 4 h after carrageenan. The text has this:
Rats’ carrageenan-induced paw edema model was used to assess the novel synthesized drugs’ anti-inflammatory properties. A total of 180–190 g of male Wistar rats were used for the experiments. In the animal house at Sohag University in Sohag, Egypt, every animal was kept in careful laboratory conditions. After being weighed and divided into six groups at random, the animals are housed for a week to reduce stress and allow them to get used to the laboratory environment. The chemicals that were synthesized were administered intraperitoneally (i.p.) to rats at a dosage of 200 mg/kg. The control group received only vehicles. […] The rats were given a 0.2 mL sub-plantar injection of a 1% (w/v) suspension of carrageenan (made in PBS) in their right hind paw thirty minutes following the injection of synthesized compounds [33]. […] The % inhibition of paw edema was calculated by the following formula [34]:%Inhibition = ((Mean edema of control group − Mean edema of test compound)/(Mean edema of control group)) × 100.

The subject of assay [4] is COX-2. As to the kind of experiment: In vitro colorimetric COX (ovine) inhibitor-screening assay, COX-2. It is filed as biochemical. To be noted: ovine COX-2, tested at 50, 100 and 150 µg/mL. The protocol: The test compounds’ ability to suppress COX-1 and COX-2 was evaluated using a colorimetric COX (ovine) inhibitor-screening method (Cayman Chemical, Item Number 760111). In brief, 150 μL of assay buffer, 10 μL of heme, 10 μL of enzyme (COX-1 or COX-2), and 10 μL of compound (1 mg/mL) make up the reaction mixture. In a final volume of […], the test compounds were evaluated at doses of 50, 100, and 150 μg/mL. The cyclooxygenase peroxidase component is used in the experiment. By monitoring the appearance of oxidized N, N, […] (TMPD) at 590 nm, the peroxidase activity is measured […]. […] The following formula was used to determine the % COX inhibition: The COX inhibition activity percentage is equal to (1 − T/C ×100), where T is the inhibitor well’s absorbance and C is the starting activity’s absorbance at 100% without the inhibitor well.

Assay [5] concerns CRP. The assay can be described thus: Serum CRP (ELISA) in carrageenan-injected rats. It is filed as in vivo, rat. To be noted: compounds 200 mg/kg i.p., indomethacin 10 mg/kg, mean ± SD. On the procedure:
(§2) The selective pro-inflammatory cytokines were measured quantitatively using rat-specific Enzyme-Linked Immunosorbent Assay (ELISA) kits from Thermo Scientific™ (Waltham, MA, USA) with CAT. No. ERCRP for CRP; from Elabscience with Cat. No. E-EL-R2856 for TNF-α and with Cat. No. E-EL-R0011 for IL-1α; from CUSABIO, Houston, TX, USA, with Cat. No. CSB-E04640r for IL-6; and from My BioSource Co, USA, with Cat. No. MBS825017 for IL-1β, with Cat. No. MBS753621 for rat cyclooxygenase 1, and with Cat. No. MBS266603 for rat cyclooxygenase 2. Meanwhile, an ovine COX inhibitor-screening in vitro assay (item number 760111) was obtained from Cayman Chemical (Ann Arbor, MI, USA). We purchased malondialdehyde (MDA), glutathione (GSH), and superoxide dismutase (SOD) detection kits from Nanjing Jiancheng Bio-Technology Co. Ltd. (Nanjing, China).
as §1

The subject of assay [6] is rat paw tissue. As to the kind of experiment: Histomorphometry lesion scores of paw tissue sections. It is filed as in vivo. The note with it: vs carrageenan group.
In assay [7] the test system is rat cyclooxygenase 1. As to the kind of experiment: COX-1 level in carrageenan-injected paw (ELISA). It is filed as in vivo. To be noted: compounds 200 mg/kg i.p., indomethacin 10 mg/kg, mean ± SD. On the procedure:
as §2, §1

Assay [8] deals with IL-1α. As to the kind of experiment: Serum IL-1α (ELISA) in carrageenan-injected rats. The note with it: compounds 200 mg/kg i.p., indomethacin 10 mg/kg, mean ± SD. It is filed as in vivo, rat. The protocol:
as §2, §1

Assay [9] relates to rat cyclooxygenase 2. As to the kind of experiment: COX-2 level in carrageenan-injected paw (ELISA). It is filed as in vivo. To be noted: compounds 200 mg/kg i.p., indomethacin 10 mg/kg, mean ± SD. On the procedure:
as §2, with “Meanwhile, an ovine COX inhibitor-screening in vitro assay (item number 760111) was obtained from Cayman Chemical (Ann Arbor, MI, USA).” left out
as §1

The subject of assay [10] is IL-1β. As to the kind of experiment: Serum IL-1β (ELISA) in carrageenan-injected rats. It is filed as in vivo, rat. To be noted: compounds 200 mg/kg i.p., indomethacin 10 mg/kg, mean ± SD. On the procedure: as §2, §1
In assay [11] the test system is TNF-α. As to the kind of experiment: Serum TNF-α (ELISA) in carrageenan-injected rats. It is filed as in vivo, rat. The note with it: compounds 200 mg/kg i.p., indomethacin 10 mg/kg, mean ± SD. On the procedure: as §2, §1
The test system of assay [12] is IL-6. As to the kind of experiment: Serum IL-6 (ELISA) in carrageenan-injected rats. It is filed as in vivo, rat. To be noted: compounds 200 mg/kg i.p., indomethacin 10 mg/kg, mean ± SD. On the procedure:
as §2, §1

Consider `COc1ccc2c(c1)c(CC(=O)O)c(C)n2C(=O)c1ccc(Cl)cc1` [indomethacin, reference compound], for which the “dermal collagen content and distribution (Sirius Red)” value in assay [1] is “marked dispersed collagenous fibers; also recorded: markedly dispersed and less organized”. Further, the “histopathological findings of paw tissue (HE)” value in assay [2] was “marked edema”. In assay [3], the “inhibition of paw edema after 4 h” value stood at 57.66%. In addition, in [4], the “COX-2 inhibition % (mean activity)” value worked out at 97%. Besides, in assay [5], the CRP is 6.23 ± 0.22 ^b ng/mL. For the same compound, the inflammation scores entry in assay [6] (Figure 11A) was “significantly reduced inflammation scores”. For the same compound, in assay [6] (Figure 11C), the vascular alteration scores entry was “significantly mitigated vascular alterations”. The same compound showed a COX-1 level in assay [7] of 6.31 ± 0.08 ng/mL. Moreover, in assay [8], the IL-1α is on record as 79.28 ± 0.55 ^b pg/mL. The COX-2 level in assay [9] stood at 5.11 ± 0.13 ng/mL. Moreover, the IL-1β in assay [10] is 92.86 ± 0.47 ^b pg/mL. The TNF-α in assay [11] is listed as 11.30 ± 0.30 ^b pg/mL. Further, the IL-6 in [12] is given as 18.49 ± 0.27 ^b pg/mL.
